Experimental data from ChEMBL document CHEMBL2203274, “Desmethyl Macrolides: Synthesis and Evaluation of 4,8-Didesmethyl Telithromycin” (2012).

How the values were obtained:
Type in all cases: functional
Staphylococcus aureus [1] = assay: Antibacterial activity against Staphylococcus aureus UCN14 harboring ribosomal A2058T mutant in presence of DMSO
Staphylococcus aureus [2] = assay: Antibacterial activity against Staphylococcus aureus ATCC 33591 harboring ermA mutant in presence of DMSO
Escherichia coli [3] = assay: Antibacterial activity against Escherichia coli DK/2058G harboring 23S rRNA A2058G mutant in presence of DMSO
Escherichia coli [4] = assay: Antibacterial activity against wild type Escherichia coli DK/pKK3535 in presence of DMSO
Escherichia coli [5] = assay: Antibacterial activity against Escherichia coli SQ171/2058G harboring 23S rRNA A2058G mutant in presence of DMSO
Escherichia coli [6] = assay: Antibacterial activity against Escherichia coli SQ171/2058G harboring 23S rRNA A2058G mutant in presence of ethanol
Staphylococcus aureus [7] = assay: Antibacterial activity against Staphylococcus aureus UCN14 harboring ribosomal A2058T mutant in presence of ethanol
Escherichia coli [8] = assay: Antibacterial activity against Escherichia coli DK/2058G harboring 23S rRNA A2058G mutant in presence of ethanol
Staphylococcus aureus [9] = assay: Antibacterial activity against Staphylococcus aureus ATCC 33591 harboring ermA mutant in presence of ethanol
Escherichia coli [10] = assay: Antibacterial activity against wild type Escherichia coli DK/pKK3535 in presence of ethanol

| Structure (SMILES) | MIC (Staphylococcus aureus [1]) | MIC (Staphylococcus aureus [2]) | MIC (Escherichia coli [3]) | MIC (Escherichia coli [4]) | MIC (Escherichia coli [5]) | MIC (Escherichia coli [6]) | MIC (Staphylococcus aureus [7]) | MIC (Escherichia coli [8]) | MIC (Staphylococcus aureus [9]) | MIC (Escherichia coli [10]) |
| --- | --- | --- | --- | --- | --- | --- | --- | --- | --- | --- |
| CC[C@H]1OC(=O)[C@H](C)C(=O)C[C@@H](O[C@@H]2O[C@H](C)C[C@H](N(C)C)[C@H]2O)[C@](C)(OC)C[C@@H](C)C(=O)C[C@H]2N(CCCCn3cnc(-c4cccnc4)c3)C(=O)O[C@]12C | > 256 µg/mL | > 128 µg/mL | 16 µg/mL | 8 µg/mL | > 512 µg/mL | – | – | – | – | – |
| CC[C@H]1OC(=O)[C@H](C)C(=O)C[C@@H](O[C@@H]2O[C@H](C)C[C@H](N(C)C)[C@H]2O)[C@](C)(OC)CCC(=O)[C@H](C)[C@H]2N(CCCCn3cnc(-c4cccnc4)c3)C(=O)O[C@]12C | > 256 µg/mL | > 64 µg/mL | 32 µg/mL | 4 µg/mL | > 512 µg/mL | – | – | – | – | – |
| CC[C@H]1OC(=O)[C@H](C)C(=O)C[C@@H](O[C@@H]2O[C@H](C)C[C@H](N(C)C)[C@H]2O)[C@@](C)(OC)CCC(=O)C[C@H]2[C@@H]1OC(=O)N2CCCCn1cnc(-c2cccnc2)c1 [4,8,10-TRIDESMETHYL TELITHROMYCIN] | – | – | – | – | – | > 512 µg/mL | 32 µg/mL | 64 µg/mL | > 128 µg/mL | 32 µg/mL |
| CC[C@H]1OC(=O)[C@H](C)C(=O)[C@H](C)[C@@H](O[C@@H]2O[C@H](C)C[C@H](N(C)C)[C@H]2O)[C@](C)(OC)C[C@@H](C)C(=O)[C@H](C)[C@H]2N(CCCCn3cnc(-c4cccnc4)c3)C(=O)O[C@]12C [TELITHROMYCIN] | > 128 µg/mL | > 128 µg/mL | 1 µg/mL | 0.5 µg/mL | > 512 µg/mL | > 512 µg/mL | > 256 µg/mL | 1 µg/mL | > 128 µg/mL | 0.5 µg/mL |
